Measurements published in paper PMC12163085, “Targeting transcription factors through an IMiD independent zinc finger domain” (EMBO Molecular Medicine, 2025).

Assays:
SNU387 = assay: cells; parameters: species or system SNU398 and SNU387 isogenic lines; CellTiter-Glo luminescence viability dose response in 384-well plates, nonlinear regression; details: Homo sapiens, SNU-387; 72 h cell viability; read-out: EC50 / SNU387Lo
Description: (§1) Empty vector, SALL4A, and SALL4B expressing isogenic cell lines were generated by transducing the SALL4 negative hepatocellular carcinoma SNU-387 cells with empty vector, SALL4A, or SALL4B FUW-Luc-mCh-puro lentiviral constructs. Cells were plated in 50 μl of RPMI culture media in 384-well white flat-bottom plates (Corning) and incubated at 37 °C in a humidified atmosphere of 5% CO2 overnight. Cell numbers per well were 1500 for SNU-398, and 750 for SNU-387 and SNU-387 isogenic lines. After overnight incubation, varying concentrations of compounds 1–80 were added to cells with multichannel electronic pipettes (Rainin). Cells were then incubated for 72 h at 37 °C in a humidified atmosphere of 5% CO2 before 10 μl of CellTiter-Glo reagent was added to the wells with the MultiFlo Microplate Dispenser (BioTek). Cells were incubated at room temperature for a minimum of 10 min, after which luminescence readings were recorded by an Infinite M1000 Microplate Reader (Tecan). Each data point was performed in n = 3 independent cell cultures. IC50 of compounds were determined using nonlinear regression fitting from Prism (GraphPad). Cell-based screening was next employed to evaluate the growth inhibitory activity of the test compounds against SALL4 expressing malignant cells. SNU398, a liver cancer cell line with high endogenous levels of SALL4, and SNU387, a liver cancer cell line with undetectable levels of SALL4, were used for comparison. Cells were incubated with the test compound at 1 μM for 72 h, after which cell viability was assessed. […] Next, we carried out dose escalation studies on all SH compounds to deduce their EC50 values on SNU387 and SNU398. In order to interrogate the effects of compounds targeting SALL4, we created isogenic cells by overexpressing SALL4A (SNU387-TgSALL4A) or SALL4B (SNU387-TgSALL4B) in SNU387 cells (Tan et al, [2019]) (Fig. 2B, and Dataset EV4). The EC50 of SH2, SH6, and SH7 in SALL4 high SNU398 cells were 0.4 μM, 0.5 μM, and 0.3 μM, respectively. In contrast, the EC50 values of the same compounds were more than 10 μM on SALL4 low SNU387 cells.

SNU398 = assay: cells; parameters: species or system SNU387, SNU398 and SNU387 isogenic lines; CellTiter-Glo luminescence viability dose response in 384-well plates, nonlinear regression; details: Homo sapiens, SNU-398; 72 h cell viability; read-out: EC50 / SNU398Hi
Description: as §1

SMILES | EC50 (SNU387) [µM] | EC50 (SNU398) [µM]
COc1cc(Nc2ncccc2/C=C/C(=O)Nc2ccccc2N)cc(OC)c1OC [SH1] | ~30 | ~3
COc1cc(Nc2ncccc2/C=C/C(=O)Nc2cc(C)ccc2N)cc(OC)c1OC [SH3] | > 30 | ~1.5
COc1cc(Nc2ncccc2/C=C/C(=O)Nc2cc(C)c(C)cc2N)cc(OC)c1OC [SH4] | > 30 | ~2
COc1cc(Nc2ncccc2/C=C/C(=O)Nc2cc(F)ccc2N)cc(OC)c1OC [SH5] | > 30 | ~2.5
COc1cc(Nc2ncccc2/C=C/C(=O)NO)cc(OC)c1OC [SH8] | > 30 | > 30
COc1ccc(Nc2ncccc2/C=C/C(=O)Nc2ccccc2N)cc1 [SH9] | > 30 | ~25
COc1ccc(Nc2ncccc2/C=C/C(=O)Nc2cc(OC)ccc2N)cc1 [SH10] | > 30 | ~2.5
COc1ccc(Nc2ncccc2/C=C/C(=O)Nc2cc(C)ccc2N)cc1 [SH11] | ~10 | ~3
COc1ccc(Nc2ncccc2/C=C/C(=O)Nc2cc(C)c(C)cc2N)cc1 [SH12] | > 30 | ~25
COc1ccc(Nc2ncccc2/C=C/C(=O)Nc2cc(Cl)ccc2N)cc1 [SH14] | ~25 | ~7
COc1ccc(Nc2ncccc2/C=C/C(=O)Nc2cc(Cl)c(Cl)cc2N)cc1 [SH15] | > 30 | ~20
COc1ccc(Nc2ncccc2/C=C/C(=O)NO)cc1 [SH16] | > 30 | > 30
Nc1ccccc1NC(=O)/C=C/c1cccnc1Nc1ccc(F)cc1 [SH17] | > 30 | ~30
COc1ccc(N)c(NC(=O)/C=C/c2cccnc2Nc2ccc(F)cc2)c1 [SH18] | > 30 | ~2
Cc1cc(N)c(NC(=O)/C=C/c2cccnc2Nc2ccc(F)cc2)cc1C [SH20] | > 30 | ~12
Nc1ccc(F)cc1NC(=O)/C=C/c1cccnc1Nc1ccc(F)cc1 [SH21] | > 30 | ~25
Nc1ccc(Cl)cc1NC(=O)/C=C/c1cccnc1Nc1ccc(F)cc1 [SH22] | ~30 | ~15
Nc1cc(Cl)c(Cl)cc1NC(=O)/C=C/c1cccnc1Nc1ccc(F)cc1 [SH23] | ~25 | ~12
Nc1ccccc1NC(=O)/C=C/c1cccnc1Nc1ccc(C(F)(F)F)cc1 [SH25] | > 30 | 30
COc1ccc(N)c(NC(=O)/C=C/c2cccnc2Nc2ccc(C(F)(F)F)cc2)c1 [SH26] | ~12 | ~6
Cc1ccc(N)c(NC(=O)/C=C/c2cccnc2Nc2ccc(C(F)(F)F)cc2)c1 [SH27] | > 30 | ~12
Cc1cc(N)c(NC(=O)/C=C/c2cccnc2Nc2ccc(C(F)(F)F)cc2)cc1C [SH28] | ~25 | ~12
Nc1ccc(F)cc1NC(=O)/C=C/c1cccnc1Nc1ccc(C(F)(F)F)cc1 [SH29] | > 30 | ~12

SMILES | EC50 (SNU387) [µM] | EC50 (SNU398) [µM]
Nc1ccc(Cl)cc1NC(=O)/C=C/c1cccnc1Nc1ccc(C(F)(F)F)cc1 [SH30] | ~30 | ~12
Nc1cc(Cl)c(Cl)cc1NC(=O)/C=C/c1cccnc1Nc1ccc(C(F)(F)F)cc1 [SH31] | ~14 | ~10
O=C(/C=C/c1cccnc1Nc1ccc(C(F)(F)F)cc1)NO [SH32] | > 30 | ~8
Nc1ccccc1NC(=O)/C=C/c1cccnc1Nc1ccc(Cl)cc1 [SH33] | > 30 | ~20
COc1ccc(N)c(NC(=O)/C=C/c2cccnc2Nc2ccc(Cl)cc2)c1 [SH34] | ~5 | ~3
Cc1ccc(N)c(NC(=O)/C=C/c2cccnc2Nc2ccc(Cl)cc2)c1 [SH35] | ~20 | ~9
Cc1cc(N)c(NC(=O)/C=C/c2cccnc2Nc2ccc(Cl)cc2)cc1C [SH36] | > 30 | ~17
Nc1ccc(F)cc1NC(=O)/C=C/c1cccnc1Nc1ccc(Cl)cc1 [SH37] | > 30 | ~17
Nc1ccc(Cl)cc1NC(=O)/C=C/c1cccnc1Nc1ccc(Cl)cc1 [SH38] | > 30 | ~15
Nc1cc(Cl)c(Cl)cc1NC(=O)/C=C/c1cccnc1Nc1ccc(Cl)cc1 [SH39] | ~25 | ~16
O=C(/C=C/c1cccnc1Nc1ccc(Cl)cc1)NO [SH40] | > 30 | ~15
COc1cc(Nc2ncccc2C(=O)Nc2ccccc2N)cc(OC)c1OC [SH41] | > 30 | > 30
COc1cc(Nc2ncccc2C(=O)Nc2cc(C)ccc2N)cc(OC)c1OC [SH43] | ~30 | ~12
COc1cc(Nc2ncccc2C(=O)Nc2cc(C)c(C)cc2N)cc(OC)c1OC [SH44] | > 30 | > 30
COc1cc(Nc2ncccc2C(=O)Nc2cc(F)ccc2N)cc(OC)c1OC [SH45] | > 30 | > 30
COc1cc(Nc2ncccc2C(=O)Nc2cc(Cl)ccc2N)cc(OC)c1OC [SH46] | > 30 | > 30
COc1cc(Nc2ncccc2C(=O)Nc2cc(Cl)c(Cl)cc2N)cc(OC)c1OC [SH47] | > 30 | ~18
COc1cc(Nc2ncccc2C(=O)NO)cc(OC)c1OC [SH48] | > 30 | > 30
COc1ccc(Nc2ncccc2C(=O)Nc2ccccc2N)cc1 [SH49] | > 30 | > 30
COc1ccc(Nc2ncccc2C(=O)Nc2cc(OC)ccc2N)cc1 [SH50] | > 30 | > 30
COc1ccc(Nc2ncccc2C(=O)Nc2cc(C)ccc2N)cc1 [SH51] | > 30 | > 30
COc1ccc(Nc2ncccc2C(=O)Nc2cc(C)c(C)cc2N)cc1 [SH52] | > 30 | > 30
COc1ccc(Nc2ncccc2C(=O)Nc2cc(F)ccc2N)cc1 [SH53] | > 30 | > 30

SMILES | EC50 (SNU387) [µM] | EC50 (SNU398) [µM]
COc1ccc(Nc2ncccc2C(=O)Nc2cc(Cl)ccc2N)cc1 [SH54] | > 30 | > 30
COc1ccc(Nc2ncccc2C(=O)Nc2cc(Cl)c(Cl)cc2N)cc1 [SH55] | > 30 | ~25
COc1ccc(Nc2ncccc2C(=O)NO)cc1 [SH56] | > 30 | > 30
Nc1ccccc1NC(=O)c1cccnc1Nc1ccc(F)cc1 [SH57] | > 30 | > 30
COc1ccc(N)c(NC(=O)c2cccnc2Nc2ccc(F)cc2)c1 [SH58] | > 30 | > 30
Cc1ccc(N)c(NC(=O)c2cccnc2Nc2ccc(F)cc2)c1 [SH59] | > 30 | > 30
Cc1cc(N)c(NC(=O)c2cccnc2Nc2ccc(F)cc2)cc1C [SH60] | > 30 | > 30
Nc1ccc(Cl)cc1NC(=O)c1cccnc1Nc1ccc(F)cc1 [SH62] | > 30 | ~25
Nc1cc(Cl)c(Cl)cc1NC(=O)c1cccnc1Nc1ccc(F)cc1 [SH63] | > 30 | ~20
O=C(NO)c1cccnc1Nc1ccc(F)cc1 [SH64] | > 30 | > 30
Nc1ccccc1NC(=O)c1cccnc1Nc1ccc(C(F)(F)F)cc1 [SH65] | > 30 | ~25
COc1ccc(N)c(NC(=O)c2cccnc2Nc2ccc(C(F)(F)F)cc2)c1 [SH66] | > 30 | ~25
Cc1ccc(N)c(NC(=O)c2cccnc2Nc2ccc(C(F)(F)F)cc2)c1 [SH67] | > 30 | > 30
Cc1cc(N)c(NC(=O)c2cccnc2Nc2ccc(C(F)(F)F)cc2)cc1C [SH68] | > 30 | > 30
Nc1ccc(F)cc1NC(=O)c1cccnc1Nc1ccc(C(F)(F)F)cc1 [SH69] | > 30 | ~16
Nc1ccc(Cl)cc1NC(=O)c1cccnc1Nc1ccc(C(F)(F)F)cc1 [SH70] | > 30 | ~25
Nc1cc(Cl)c(Cl)cc1NC(=O)c1cccnc1Nc1ccc(C(F)(F)F)cc1 [SH71] | ~25 | ~16
O=C(NO)c1cccnc1Nc1ccc(C(F)(F)F)cc1 [SH72] | > 30 | ~25
Nc1ccccc1NC(=O)c1cccnc1Nc1ccc(Cl)cc1 [SH73] | > 30 | ~30
COc1ccc(N)c(NC(=O)c2cccnc2Nc2ccc(Cl)cc2)c1 [SH74] | > 30 | ~20
Cc1ccc(N)c(NC(=O)c2cccnc2Nc2ccc(Cl)cc2)c1 [SH75] | > 30 | > 30
